Each compound was assayed against T1, DCAF1 WD40 domain (residues 1077-1390) (Homo sapiens, UniProt Q9Y4B6) (assay: DCAF1 binding assay by SPR (Biacore 8K+), DCAF1-3 KD). Conditions: 25 °C, read-out: DCAF1-3 SPR (KD).
T1 construct: DCAF1 WD40 domain (residues 1077-1390)
T1 sequence (Q9Y4B6 1077-1390): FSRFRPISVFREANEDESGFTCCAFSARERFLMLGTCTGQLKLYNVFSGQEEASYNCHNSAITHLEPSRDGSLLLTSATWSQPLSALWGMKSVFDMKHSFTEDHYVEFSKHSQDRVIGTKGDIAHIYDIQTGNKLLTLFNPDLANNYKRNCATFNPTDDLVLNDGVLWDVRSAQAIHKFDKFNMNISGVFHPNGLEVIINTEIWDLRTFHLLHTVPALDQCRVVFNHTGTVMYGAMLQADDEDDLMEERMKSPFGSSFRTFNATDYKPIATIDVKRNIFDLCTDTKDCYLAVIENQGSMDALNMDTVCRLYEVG

SMILES | Kd
COCCOCC[C@@H]1CCCN(c2ccnc(N3CC[C@H]4[C@@H]3CCCN4c3cccc(F)c3)c2)C1 [I-714] | 10 to 100 µM
COCCOCC[C@H]1CCCN(c2ccnc(N3CC[C@H]4[C@@H]3CCCN4c3cccc(F)c3)c2)C1 [I-715] | < 10 µM
Oc1ccc(N2CCC[C@@H](Nc3cc(N4CCCCC4)ccn3)C2)cc1F [I-716] | 10 to 100 µM
Clc1cccc(N2CCC[C@H]3[C@@H]2CCN3c2cc(N3CC4CC(C4)C3)ccn2)c1 [I-717] | < 10 µM
Oc1ccc(N2CCC[C@H]3[C@@H]2CCN3c2cc(N3CC4CC(C4)C3)ccn2)cc1 [I-718] | < 10 µM
NCCCCCCCCCCCCCCCCCC1CCN(c2ccnc(N3CC[C@@H]4[C@H]3CCCN4c3cccc(F)c3)c2)CC1 [I-719] | > 200 µM
Fc1cccc(N2CCC[C@H]3[C@@H]2CCCN3c2cc(N3CCCCC3)ccn2)c1 [I-720] | < 10 µM
NCCCCCCCCCCCC1CCN(c2ccnc(N3CC[C@@H]4[C@H]3CCCN4c3cccc(F)c3)c2)CC1 [I-721] | < 10 µM
COc1ccc(N2CCC[C@@H]3[C@H]2CCN3c2cc(N3CC4CC(C4)C3)ccn2)cc1F [I-722] | > 200 µM
C[C@H]1CCCC[C@H]1c1[nH]ncc1C(=O)N[C@@H](CC(N)=O)c1cccc(Cl)c1 [I-723] | < 10 µM
C[C@@H]1CCCCC1c1[nH]ncc1C(=O)N[C@@H](CC(N)=O)c1cccc(Cl)c1 (some centres unmarked) [I-724] | < 10 µM
NCCCCCCCCCCCCCCC1CCN(c2ccnc(N3CC[C@@H]4[C@H]3CCCN4c3cccc(F)c3)c2)CC1 [I-725] | 10 to 100 µM
CCCCCCC[C@@H]1CCCN(c2ccnc(N3CC[C@@H]4[C@H]3CCCN4c3cccc(F)c3)c2)C1 [I-726] | > 200 µM
CCCCCCC[C@H]1CCCN(c2ccnc(N3CC[C@@H]4[C@H]3CCCN4c3cccc(F)c3)c2)C1 [I-727] | > 200 µM
CCCCCCC[C@@H]1CCCN(c2ccnc(N3CC[C@H]4[C@@H]3CCCN4c3cccc(F)c3)c2)C1 [I-728] | 10 to 100 µM
CCCCCCC[C@H]1CCCN(c2ccnc(N3CC[C@H]4[C@@H]3CCCN4c3cccc(F)c3)c2)C1 [I-729] | 10 to 100 µM
Oc1c(CN2CCCCC2)cccc1[C@@H]1CCCN(c2cccc(F)c2)C1 [I-730] | > 200 µM
Oc1c(CN2CCCCC2)cccc1[C@H]1CCCN(c2cccc(F)c2)C1 [I-731] | > 200 µM
Cc1c(F)ccc(F)c1-c1c(C(=O)N[C@@H](CC(N)=O)c2cccc(Cl)c2)c[nH]c1C(=O)c1cccc(C2CCCCC2)c1 [I-732] | < 10 µM
Nc1ccc(N2CCC[C@@H]3[C@H]2CCN3c2cc(N3CC4CC(C4)C3)ccn2)cc1F [I-733] | < 10 µM
Nc1ccc(N2CCC[C@H]3[C@@H]2CCN3c2cc(N3CC4CC(C4)C3)ccn2)cc1F [I-734] | 10 to 100 µM

SMILES | Kd
Cc1cccc(F)c1-c1[nH]ncc1C(=O)N[C@H](CC(N)=O)c1cc(Cl)cc(Cl)c1 [I-735] | 100 to 200 µM
Cc1cccc(F)c1-c1[nH]ncc1C(=O)N[C@H](CC(N)=O)c1cc(Cl)cc(Cl)c1 [I-736] | < 10 µM
Cc1cc(Cl)cc([C@H](CC(N)=O)NC(=O)c2cn[nH]c2-c2c(C)cccc2F)c1 [I-737] | > 200 µM
Cc1cc(Cl)cc([C@@H](CC(N)=O)NC(=O)c2cn[nH]c2-c2c(C)cccc2F)c1 [I-738] | < 10 µM
Cc1c(F)ccc(F)c1-c1c(C(=O)N[C@@H](CC(N)=O)c2cccc(Cl)c2)c[nH]c1C(=O)c1cccc(C(C)C)c1 [I-739] | < 10 µM
O=C(O)C[C@H](NC(=O)c1cn[nH]c1-c1ccccc1F)c1cccc(Cl)c1 [I-740] | 10 to 100 µM
C[C@H]1CC[C@H](c2[nH]ncc2C(=O)N[C@@H](CC(N)=O)c2cccc(Cl)c2)CC1 [I-741] | < 10 µM
C[C@H]1CC[C@@H](c2[nH]ncc2C(=O)N[C@@H](CC(N)=O)c2cccc(Cl)c2)CC1 [I-742] | < 10 µM
Fc1cccc(N2CCNC(Cc3cc(N4CCCCC4)ccn3)C2)c1 (centres unmarked) [I-743] | > 200 µM
Cc1cccc(F)c1-c1c(C(=O)N[C@@H](CC(N)=O)c2cccc(Cl)c2)c[nH]c1Nc1cc(N2CCCCC2)ccn1 [I-744] | < 10 µM
NCCCCCCCCCCCCCCCCCCCCC1CCN(c2ccnc(N3CC[C@@H]4[C@H]3CCCN4c3cccc(F)c3)c2)CC1 [I-745] | > 200 µM
CC(=O)Nc1ccc(N2CCC[C@@H]3[C@H]2CCN3c2cc(N3CCCCC3)ccn2)cc1F [I-746] | 10 to 100 µM
CC(=O)Nc1ccc(N2CCC[C@H]3[C@@H]2CCN3c2cc(N3CCCCC3)ccn2)cc1F [I-747] | > 200 µM
Cc1cccc(F)c1-c1[nH]ncc1C(=O)N[C@@H](CC(N)=O)c1cc(F)cc(Cl)c1 [I-748] | 10 to 100 µM
Cc1cccc(F)c1-c1[nH]ncc1C(=O)N[C@H](CC(N)=O)c1cc(F)cc(Cl)c1 [I-749] | < 10 µM
c1cc(N2CCCCC2)cc(N[C@H]2CCC[C@H](C3CCCCC3)C2)n1 [I-750] | > 200 µM
c1cc(N2CCCCC2)cc(N[C@@H]2CCC[C@H](C3CCCCC3)C2)n1 [I-751] | > 200 µM
c1cc(N2CCCCC2)cc(N[C@@H]2CCC[C@@H](C3CCCCC3)C2)n1 [I-752] | 10 to 100 µM
c1ccc([C@@H]2CCC[C@H](Nc3cc(N4CCCCC4)ccn3)C2)cc1 [I-753] | 10 to 100 µM
c1ccc([C@H]2CCC[C@@H](Nc3cc(N4CCCCC4)ccn3)C2)cc1 [I-754] | 10 to 100 µM
c1ccc([C@H]2CCC[C@H](Nc3cc(N4CCCCC4)ccn3)C2)cc1 [I-755] | < 10 µM

SMILES | Kd
C=CC(=O)NCCCCC1CCN(c2ccnc(N[C@@H]3CCCN(c4cccc(F)c4)C3)c2)CC1 [I-756] | 10 to 100 µM
COC(=O)C[C@H](NC(=O)c1cn[nH]c1-c1ccccc1F)c1cccc(Cl)c1 [I-757] | > 200 µM
CO/N=C(/c1ccccc1)c1[nH]cc(C(=O)N[C@@H](CC(N)=O)c2cccc(Cl)c2)c1-c1c(F)ccc(F)c1C [I-758] | < 10 µM
Cc1c(F)ccc(F)c1-c1c(C(=O)N[C@@H](CC(N)=O)c2cccc(Cl)c2)c[nH]c1/C(=N/OC(C)C)c1ccccc1 [I-759] | < 10 µM
OCc1cnc2ccc(N3CCC[C@@H](Nc4cc(N5CCCCC5)ccn4)C3)nn12 [I-760] | > 200 µM
O=CNc1ccc(N2CCC[C@@H]3[C@H]2CCN3c2cc(N3CCCCC3)ccn2)cc1F [I-761] | > 200 µM
O=CNc1ccc(N2CCC[C@H]3[C@@H]2CCN3c2cc(N3CCCCC3)ccn2)cc1F [I-762] | > 200 µM
Cc1cn2cc(N3CCC[C@@H](Nc4cc(N5CCOCC5)ccn4)C3)ccc2n1 [I-763] | 10 to 100 µM
Cc1cc2nccn2cc1N1CCC[C@@H](Nc2cc(N3CCOCC3)ccn2)C1 [I-765] | > 200 µM
CCOC(=O)Cc1ccncc1N1CCC[C@@H](Nc2cc(N3CCOCC3)ccn2)C1 [I-766] | 10 to 100 µM
CS(=O)(=O)CCC(=O)N1CCC[C@@H](Nc2cc(N3CCOCC3)ccn2)C1 [I-767] | > 200 µM
CS(=O)(=O)CCCC(=O)N1CCC[C@@H](Nc2cc(N3CCOCC3)ccn2)C1 [I-768] | > 200 µM
NC(=O)c1ccc(N2CCC[C@@H](Nc3cc(N4CCOCC4)ccn3)C2)cc1 [I-769] | > 200 µM
N#Cc1ccccc1N1CCC[C@@H](Nc2cc(N3CCOCC3)ccn2)C1 [I-770] | 10 to 100 µM
N#Cc1cccc(N2CCC[C@@H](Nc3cc(N4CCOCC4)ccn3)C2)c1 [I-771] | > 200 µM
O[C@@H](c1cccc(N2CCC[C@@H](Nc3cc(N4CCOCC4)ccn3)C2)c1)C(F)(F)F [I-772] | 10 to 100 µM
Cn1cncc1N1CCC[C@@H](Nc2cc(N3CCOCC3)ccn2)C1 [I-773] | 10 to 100 µM
N#Cc1ccc(N2CCC[C@@H](Nc3cc(N4CCOCC4)ccn3)C2)cc1 [I-774] | > 200 µM
NC(=O)c1cccc(N2CCC[C@@H](Nc3cc(N4CCOCC4)ccn3)C2)c1 [I-775] | > 200 µM
NC(=O)Cc1cccc(N2CCC[C@@H](Nc3cc(N4CCOCC4)ccn3)C2)c1 [I-776] | > 200 µM
NC(=O)CCc1cccc(N2CCC[C@@H](Nc3cc(N4CCOCC4)ccn3)C2)c1 [I-777] | 10 to 100 µM

SMILES | Kd
O=C1NCCc2c1cccc2N1CCC[C@@H](Nc2cc(N3CCOCC3)ccn2)C1 [I-778] | > 200 µM
COC(=O)c1cc(N2CCC[C@@H](Nc3cc(N4CCOCC4)ccn3)C2)cc2c1OCO2 [I-779] | > 200 µM
Oc1ccc2nc(N3CCC[C@@H](Nc4cc(N5CCOCC5)ccn4)C3)ccc2c1 [I-780] | 10 to 100 µM
COC(=O)c1nc(N2CCC[C@@H](Nc3cc(N4CCOCC4)ccn3)C2)ccc1C [I-781] | 10 to 100 µM
CCOC(=O)Cc1ccc(N2CCC[C@@H](Nc3cc(N4CCOCC4)ccn3)C2)cn1 [I-782] | > 200 µM
CN(C)CC[C@H](c1ccc(N2CCC[C@@H](Nc3cc(N4CCOCC4)ccn3)C2)cc1)c1ccccn1 [I-783] | > 200 µM
CN(C)C(=O)c1cccnc1N1CCC[C@@H](Nc2cc(N3CCOCC3)ccn2)C1 [I-784] | > 200 µM
COC(=O)c1cc(-c2cccc(N3CCC[C@@H](Nc4cc(N5CCOCC5)ccn4)C3)c2)on1 [I-785] | > 200 µM
c1cc(N2CCOCC2)cc(N[C@@H]2CCCN(c3ccc(CN4CCOCC4)cn3)C2)n1 [I-786] | 10 to 100 µM
O=C(N[C@@H](CC(=O)N1CCNCC1)c1cccc(Cl)c1)c1cn[nH]c1-c1ccccc1F [I-787] | < 10 µM
C[C@H]1CCCCN1c1ccnc2c1CCN2C1CCCN(c2cccc(F)c2)C1 (some centres unmarked) [I-788] | < 10 µM
Fc1cccc(N2CCCC(N3CCc4c(N5CCCCC5)ccnc43)C2)c1 (centres unmarked) [I-789] | < 10 µM
Fc1cccc(N2CCCC(N3CCc4c(N5CC6CC(C6)C5)ccnc43)C2)c1 (centres unmarked) [I-790] | < 10 µM
NCCOCCOCCOCCOCCCc1ccc(C(=O)c2[nH]cc(C(=O)N[C@@H](CC(N)=O)c3cccc(Cl)c3)c2-c2c(F)ccc(F)c2F)cc1 [I-791] | < 10 µM
Cc1c(F)ccc(F)c1-c1c(C(=O)N[C@@H](CC(N)=O)c2cccc(Cl)c2)c[nH]c1C(=O)c1cccc(O)c1 [I-792] | < 10 µM
NC(=O)C[C@H](NC(=O)c1cn[nH]c1-c1c(F)ccc(F)c1C(F)(F)F)c1cccc(Cl)c1 [I-793] | < 10 µM
O[C@@H]1CCCN(c2ccnc(N3CC[C@@H]4[C@H]3CCCN4c3cccc(F)c3)c2)C1 [I-794] | < 10 µM
COc1cccc(C(=O)c2[nH]cc(C(=O)N[C@@H](CC(N)=O)c3cccc(Cl)c3)c2-c2c(F)ccc(F)c2C)c1 [I-795] | < 10 µM
COc1ccc(F)cc1N1CCC[C@@H]2[C@H]1CCN2c1cc(N2CCCCC2)ccn1 [I-796] | 10 to 100 µM
O[C@H]1CCCN(c2ccnc(N3CC[C@H]4[C@@H]3CCCN4c3cccc(F)c3)c2)C1 [I-797] | 10 to 100 µM
